Usually Kd stands for the concentration at which binding is half-saturated. One may read the IC50 as the midpoint of a concentration-inhibition curve.

Results on eight molecules are retold here after US20030235851A1, “Methods of using sense and/or nonsense suppression to make nucleic acid-peptide display libraries containing peptides with unnatural amino acid residues” (priority 2002, published 2003).

Peptide text beside a SMILES is read from it. * marks the point of attachment. X1 = CC1(C)S[C@@H]2[C@H](NC(=O)C*)C(=O)N2[C@H]1C(=O)O; Carboxymethyl = O=C(O)C*

The target in assay [1] is T1, PBP2a (Staphylococcus aureus, UniProt P07944). The assay is described as follows: Relative IC50 competition assay of peptide penicillanate conjugates against PBP2a (biotinylated ampicillin). The class given is binding. Also noted: This part was cleaved off with DTT before the test.
Experimental: Relative IC50 Assay of Peptide Penicillanate Conjugates
Various concentration of conjugates were prepared by dissolving in reaction buffer (50 mM phosphate, pH=8.0; 100 mM NaCl) and incubating with 2 Vg pure PBP2a respectively at 37° C. for 15 min. 20 μg biotinylated ampicillin was added immediately and incubated at 37° C. for 10 min. The reaction was stopped by heating the reaction mixture at 94° C. for 5 min. The samples were loaded into 12% SDS-PAGE for separation, then were transferred to a nitrocellulose membrane by blotting with sodium bicarbonate buffer (20% methanol; 3 mM Na2CO3; 10 mM NaHCO3) at 400 mA for 3 hr. The membrane was blocked with blocking solution (20 mM Tris, pH=8.0; 150 mM NaCl; 0.05% TWEEN-20 detergent; 5% milk) for 1 hr, then incubated with 10 ml TBS buffer (20 mM Tris, pH=8.0; 150 mM NaCl) containing 1 μg/ml streptavidin-HRP protein (Pierce Chemical) at room temperature for 1 hr. The membrane was washed 6 times with 50 ml TBS buffer, at 5 min intervals, and covered with FEMTO-WESTERN blotting reagent (Pierce Chemical). The membrane was then examined under a digital camera at dark to collect chemiluminescent emission for 10-15 min.
For assay [2], the target named is Crk N terminal SH3 domain (Homo sapiens, UniProt P46108). The following applies: substitution for proline at P2 and P−1; cited from earlier work.
In assay [3] the target is Grb2 N terminal SH3 domain (Homo sapiens, UniProt P62993). The following applies: substitution for proline at P2 and P−1; cited from earlier work.
Assay [4] has as its target T1, PBP2a. The following applies: cited from earlier work.
Assay [5] deals with translation complex A site. The following applies: ribosome; cited from earlier work.
For assay [6], the target named is penicillin-binding protein 2a (PBP2a) (Staphylococcus aureus (MRSA)) (UniProt P07944). Briefly: relative IC50: competition with biotinylated ampicillin for labelling of pure PBP2a, streptavidin-HRP blot.
For assay [7] the target is unchanged. Briefly: relative IC50: conjugate pre-incubated with pure PBP2a 15 min at 37 C, then competition with biotinylated ampicillin, SDS-PAGE and streptavidin-HRP blot.
For assay [8] the target is unchanged. The assay is described as follows: ratio of relative IC50 values against the 6-aminopenicillanic acid reference, biotinylated ampicillin competition on PBP2a.

penicillin-binding protein 2a (PBP2a) (Staphylococcus aureus (MRSA)), sequence (P07944 23-670): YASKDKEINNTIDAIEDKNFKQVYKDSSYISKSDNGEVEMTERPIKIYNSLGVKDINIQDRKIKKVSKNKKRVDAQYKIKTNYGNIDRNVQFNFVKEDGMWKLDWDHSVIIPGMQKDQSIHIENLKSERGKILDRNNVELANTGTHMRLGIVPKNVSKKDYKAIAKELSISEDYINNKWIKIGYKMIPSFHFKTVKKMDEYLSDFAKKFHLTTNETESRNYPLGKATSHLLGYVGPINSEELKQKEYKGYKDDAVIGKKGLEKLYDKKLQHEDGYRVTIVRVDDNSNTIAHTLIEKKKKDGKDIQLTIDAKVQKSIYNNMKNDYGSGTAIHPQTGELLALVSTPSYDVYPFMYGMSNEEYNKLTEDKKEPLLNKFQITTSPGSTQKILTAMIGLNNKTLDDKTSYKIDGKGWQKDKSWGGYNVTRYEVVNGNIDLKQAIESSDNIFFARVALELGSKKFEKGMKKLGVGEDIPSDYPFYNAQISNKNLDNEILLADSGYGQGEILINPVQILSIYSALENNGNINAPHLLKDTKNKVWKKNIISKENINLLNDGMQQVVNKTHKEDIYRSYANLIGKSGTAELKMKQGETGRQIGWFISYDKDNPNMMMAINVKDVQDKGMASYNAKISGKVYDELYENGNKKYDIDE
T1 sequence (P07944 whole entry, the tested form may be a part): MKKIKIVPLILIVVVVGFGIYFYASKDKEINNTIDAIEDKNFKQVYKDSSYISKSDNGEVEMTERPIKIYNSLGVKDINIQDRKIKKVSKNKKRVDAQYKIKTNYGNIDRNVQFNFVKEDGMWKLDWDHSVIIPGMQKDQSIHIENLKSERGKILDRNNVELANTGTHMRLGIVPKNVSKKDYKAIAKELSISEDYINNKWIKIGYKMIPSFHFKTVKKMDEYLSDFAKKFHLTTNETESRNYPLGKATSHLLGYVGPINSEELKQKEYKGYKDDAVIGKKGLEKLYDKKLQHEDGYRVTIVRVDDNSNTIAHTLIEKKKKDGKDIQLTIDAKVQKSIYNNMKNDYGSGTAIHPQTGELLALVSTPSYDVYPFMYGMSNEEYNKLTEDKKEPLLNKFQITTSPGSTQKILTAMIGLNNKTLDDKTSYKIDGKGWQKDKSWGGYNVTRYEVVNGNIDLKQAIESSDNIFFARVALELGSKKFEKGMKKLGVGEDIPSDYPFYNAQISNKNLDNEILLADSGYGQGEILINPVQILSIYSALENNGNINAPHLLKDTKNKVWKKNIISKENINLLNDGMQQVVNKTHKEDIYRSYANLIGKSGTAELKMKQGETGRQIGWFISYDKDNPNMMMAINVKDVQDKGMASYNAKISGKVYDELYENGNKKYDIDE
Crk N terminal SH3 domain, sequence (P46108 132-192 limits assumed): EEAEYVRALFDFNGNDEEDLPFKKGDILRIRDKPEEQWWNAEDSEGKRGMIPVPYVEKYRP
Grb2 N terminal SH3 domain, sequence (P62993 1-58 limits assumed): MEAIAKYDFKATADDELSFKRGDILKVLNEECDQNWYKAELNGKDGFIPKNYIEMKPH

For the molecule `CC[C@H](C)[C@H](NC(=O)[C@H](CSCC(=O)N[C@@H]1C(=O)N2[C@@H]1SC(C)(C)[C@@H]2C(=O)O)NC(=O)[C@H](CC(N)=O)NC(=O)[C@H](CO)NC(=O)[C@H](CC(N)=O)NC(=O)[C@H](CCCNC(=N)N)NC(=O)[C@@H](N)CC(C)C)C(=O)N[C@@H](CCCNC(=N)N)C(=O)N[C@@H](Cc1c[nH]cn1)C(=O)N[C@@H](Cc1ccccc1)C(=O)N[C@@H](Cc1ccccc1)C(=O)O` [LRNSNC(pen)IRHFF] (H-LRNSNC(X1)IRHFF-OH; N-terminus and C-terminus assumed), the “improvement as compared to 6-APA” value in assay [1] (PBP2a inhibition) is recorded as “about 100 fold”. Consider `CNCC(=O)O` [N-methyl glycine], for which the “change in the binding” value in assay [2] and in assay [3] was “little change” in each case.

In the case of `CC1(C)S[C@@H]2[C@H](NC(=O)Cc3ccccc3)C(=O)N2[C@H]1C(=O)O` [benzyl penicillin], the “rate constant for covalent attachment to PBP2a (k2)” value in assay [4] was 0.22 s⁻¹. As for `COc1cccc(OC)c1C(=O)N[C@@H]1C(=O)N2[C@@H]1SC(C)(C)[C@@H]2C(=O)O` [methicillin], in assay [4], the “rate constant for covalent attachment to PBP2a (k2)” value was 0.0083 s⁻¹. As to `COc1ccc(C[C@H](N)C(=O)N[C@H]2[C@@H](O)[C@H](n3cnc4c(N(C)C)ncnc43)O[C@@H]2CO)cc1` [puromycin], the Kd in assay [5] was 0.1 mM. For `CC[C@H](C)[C@H](NC(=O)[C@H](CSCC(=O)O)NC(=O)[C@H](CC(N)=O)NC(=O)[C@H](CO)NC(=O)[C@H](CC(N)=O)NC(=O)[C@H](CCCNC(=N)N)NC(=O)[C@@H](N)CC(C)C)C(=O)N[C@@H](CCCNC(=N)N)C(=O)N[C@@H](Cc1c[nH]cn1)C(=O)N[C@@H](Cc1ccccc1)C(=O)N[C@@H](Cc1ccccc1)C(=O)O` [unmodified peptide] (H-LRNSNC(Carboxymethyl)IRHFF-OH), in assay [1], the IC50 was over 35 mM. In the case of “LRNSNC(COOH)IRHFF (residues 2-12 of SEQ ID NO: 5) (peptide)”, the IC50 in assay [6] was over 35 mM. “LRNSNC(pen)IRHFF (residues 2-12 of SEQ ID NO: 5) (peptide)” came in with an IC50 in assay [7] of 7 mM. Moreover, the fold improvement compared to 6-APA in assay [8] stood at 100 fold.
